Assay results taken from ChEMBL document CHEMBL5634167, “Insights into the structure-activity relationship of the anticancer compound ZJ-101: A role played by the amide moiety” (Bioorg Med Chem Lett, 2024).

Experiments:
Format in all cases: functional, cell-based
MCF7 = test: Antiproliferative activity against human MCF7 cells assessed inhibition of cell growth incubated for 72 hrs by alamar blue assay; conditions: MCF7, 72 h
HCT-116 = test: Antiproliferative activity against human HCT-116 cells assessed inhibition of cell growth incubated for 72 hrs by alamar blue assay; conditions: HCT-116, 72 h
MDA-MB-231 = test: Antiproliferative activity against human MDA-MB-231 cells assessed inhibition of cell growth incubated for 72 hrs by alamar blue assay; conditions: MDA-MB-231, 72 h

| IC50 (MCF7) | IC50 (HCT-116) | IC50 (MDA-MB-231) | Compound |
| --- | --- | --- | --- |
| 41.4 nM | 47.5 nM | 64 nM | CC1=C/C=C/C(=O)O[C@@H]([C@H](C)[C@H](O)[C@@H](C)NC(=O)C(C)C)[C@H](C)/C=C/C(C)=C/[C@H]2C=CCC[C@@]2(C)\C=C\1 |
| > 2000 nM | > 5000 nM | > 2000 nM | COC(=O)N[C@H](C)[C@@H](O)[C@@H](C)[C@@H]1OC(=O)/C=C/C=C(C)\C=C\[C@]2(C)CCC=C[C@@H]2/C=C(C)/C=C/[C@H]1C |

Further lines, the molecule ahead of its results:

| Compound | IC50 (MCF7) | IC50 (HCT-116) | IC50 (MDA-MB-231) |
| --- | --- | --- | --- |
| CC(=O)N[C@H](C)[C@@H](O)[C@@H](C)[C@@H]1OC(=O)/C=C/C=C(C)\C=C\[C@]2(C)CCC=C[C@@H]2/C=C(C)/C=C/[C@H]1C | – | 88.2 nM | – |
| CNC(=O)N[C@H](C)[C@@H](O)[C@@H](C)[C@@H]1OC(=O)/C=C/C=C(C)\C=C\[C@]2(C)CCC=C[C@@H]2/C=C(C)/C=C/[C@H]1C | 88.5 nM | 136 nM | 104 nM |
| CC1=C/C=C/C(=O)O[C@@H]([C@H](C)[C@H](O)[C@@H](C)NS(C)(=O)=O)[C@H](C)/C=C/C(C)=C/[C@H]2C=CCC[C@@]2(C)\C=C\1 | 1120 nM | 3360 nM | 1010 nM |
